Experimental data: patent US11672251B2, “Herbicidally active pyridyl-/pyrimidyl-pyrimidine derivatives” (Syngenta Participations AG, priority 2017, dated 2023)

These compounds were tested on Echinochloa crus-galli (ECHCG) (assay: B2 post-emergence herbicidal activity). Settings: Test B2b; post-emergence (sprayed after 8 days cultivation); rate 1000 g/ha; evaluated after 13 days; scale 5=total damage to plant, 0=no damage to plant.
Type: in vivo
Description: (§1) Seeds of a variety of test species were sown in standard soil in pots: Triticum aestivium (TRZAW), Avena fatua (AVEFA), Alopecurus myosuroides (ALOMY), Echinochloa crus-galli (ECHCG), Lolium perenne (LOLPE), Zea Mays (ZEAMX), Abutilon theophrasti (ABUTH), Amaranthus retroflexus (AMARE) and Setaria faberi (SETFA). After 8 days cultivation (post-emergence) under controlled conditions in a glasshouse (at 24/16° C., day/night; 14 hours light; 65% humidity), the plants were sprayed with an aqueous spray solution derived from the formulation of the technical active ingredient in acetone/water (50:50) solution containing 0.5% Tween 20 (polyoxyethelyene sorbitan monolaurate, CAS RN 9005-64-5). The test plants were then grown in a glasshouse under controlled conditions (at 24/16° C., day/night; 14 hours light; 65% humidity) and watered twice daily. After 13 days, the test was evaluated (5=total damage to plant; 0=no damage to plant).
In the case of Cc1nc(-c2cncnc2)ncc1N [Compound D3, 4-methyl-2-pyrimidin-5-yl-pyrimidin-5-amine], the “Control after post-emergence application, damage score: ECHCG” value is reported as 2. In the case of CNc1cnc(-c2cncnc2)nc1C [Compound D4], the “Control after post-emergence application, damage score: ECHCG” value is reported as 1. Nc1cnc(-c2cncc(F)c2)nc1C(F)(F)F [Compound D5, 2-(5-fluoro-3-pyridyl)-4-(trifluoromethyl)pyrimidin-5-amine] was tested, and the “Control after post-emergence application, damage score: ECHCG” value was 4. With CNc1cnc(-c2cncc(F)c2)nc1C(F)(F)F [Compound D6] the “Control after post-emergence application, damage score: ECHCG” value was 5.

What follows are compounds tested on Triticum aestivium (TRZAW) (assay: B2 post-emergence herbicidal activity). Settings: Test B2b; post-emergence (sprayed after 8 days cultivation); rate 1000 g/ha; evaluated after 13 days; scale 5=total damage to plant, 0=no damage to plant.
Type: in vivo
Description: as §1
With Cc1nc(-c2cncnc2)ncc1N [Compound D3, 4-methyl-2-pyrimidin-5-yl-pyrimidin-5-amine] the “Control after post-emergence application, damage score: TRAZW” value was 0. For CNc1cnc(-c2cncnc2)nc1C [Compound D4], the “Control after post-emergence application, damage score: TRAZW” value was 0. Nc1cnc(-c2cncc(F)c2)nc1C(F)(F)F [Compound D5, 2-(5-fluoro-3-pyridyl)-4-(trifluoromethyl)pyrimidin-5-amine] was tested, and the “Control after post-emergence application, damage score: TRAZW” value was 1. CNc1cnc(-c2cncc(F)c2)nc1C(F)(F)F [Compound D6] was tested, and the “Control after post-emergence application, damage score: TRAZW” value was 1.

Each compound was assayed on Setaria faberi (SETFA) (assay: B2 post-emergence herbicidal activity). Settings: Test B2b; post-emergence (sprayed after 8 days cultivation); rate 1000 g/ha; evaluated after 13 days; scale 5=total damage to plant, 0=no damage to plant.
Type: in vivo
Description: as §1
For Cc1nc(-c2cncnc2)ncc1N [Compound D3, 4-methyl-2-pyrimidin-5-yl-pyrimidin-5-amine], the “Control after post-emergence application, damage score: SETFA” value was 3. CNc1cnc(-c2cncnc2)nc1C [Compound D4] was tested, and the “Control after post-emergence application, damage score: SETFA” value was 1. Nc1cnc(-c2cncc(F)c2)nc1C(F)(F)F [Compound D5, 2-(5-fluoro-3-pyridyl)-4-(trifluoromethyl)pyrimidin-5-amine] was tested, and the “Control after post-emergence application, damage score: SETFA” value was 5. For CNc1cnc(-c2cncc(F)c2)nc1C(F)(F)F [Compound D6], the “Control after post-emergence application, damage score: SETFA” value was 5.

What follows are compounds tested on Lolium perenne (LOLPE) (assay: B2 post-emergence herbicidal activity). Settings: Test B2b; post-emergence (sprayed after 8 days cultivation); rate 1000 g/ha; evaluated after 13 days; scale 5=total damage to plant, 0=no damage to plant.
Type: in vivo
Description: as §1
For Cc1nc(-c2cncnc2)ncc1N [Compound D3, 4-methyl-2-pyrimidin-5-yl-pyrimidin-5-amine], the “Control after post-emergence application, damage score: LOLPE” value was 1. With CNc1cnc(-c2cncnc2)nc1C [Compound D4] the “Control after post-emergence application, damage score: LOLPE” value was 1. In the case of Nc1cnc(-c2cncc(F)c2)nc1C(F)(F)F [Compound D5, 2-(5-fluoro-3-pyridyl)-4-(trifluoromethyl)pyrimidin-5-amine], the “Control after post-emergence application, damage score: LOLPE” value is reported as 3. CNc1cnc(-c2cncc(F)c2)nc1C(F)(F)F [Compound D6] was tested, and the “Control after post-emergence application, damage score: LOLPE” value was 3.

The compounds below were run on Avena fatua (AVEFA) (assay: B2 post-emergence herbicidal activity). Settings: Test B2b; post-emergence (sprayed after 8 days cultivation); rate 1000 g/ha; evaluated after 13 days; scale 5=total damage to plant, 0=no damage to plant.
Type: in vivo
Description: as §1
In the case of Cc1nc(-c2cncnc2)ncc1N [Compound D3, 4-methyl-2-pyrimidin-5-yl-pyrimidin-5-amine], the “Control after post-emergence application, damage score: AVEFA” value is reported as 1. For CNc1cnc(-c2cncnc2)nc1C [Compound D4], the “Control after post-emergence application, damage score: AVEFA” value was 0. With Nc1cnc(-c2cncc(F)c2)nc1C(F)(F)F [Compound D5, 2-(5-fluoro-3-pyridyl)-4-(trifluoromethyl)pyrimidin-5-amine] the “Control after post-emergence application, damage score: AVEFA” value was 4. With CNc1cnc(-c2cncc(F)c2)nc1C(F)(F)F [Compound D6] the “Control after post-emergence application, damage score: AVEFA” value was 2.

What follows are compounds tested on Alopecurus myosuroides (ALOMY) (assay: B2 post-emergence herbicidal activity). Settings: Test B2b; post-emergence (sprayed after 8 days cultivation); rate 1000 g/ha; evaluated after 13 days; scale 5=total damage to plant, 0=no damage to plant.
Type: in vivo
Description: as §1
In the case of Cc1nc(-c2cncnc2)ncc1N [Compound D3, 4-methyl-2-pyrimidin-5-yl-pyrimidin-5-amine], the “Control after post-emergence application, damage score: ALOMY” value is reported as 1. CNc1cnc(-c2cncnc2)nc1C [Compound D4] was tested, and the “Control after post-emergence application, damage score: ALOMY” value was 1. Nc1cnc(-c2cncc(F)c2)nc1C(F)(F)F [Compound D5, 2-(5-fluoro-3-pyridyl)-4-(trifluoromethyl)pyrimidin-5-amine] was tested, and the “Control after post-emergence application, damage score: ALOMY” value was 1. For CNc1cnc(-c2cncc(F)c2)nc1C(F)(F)F [Compound D6], the “Control after post-emergence application, damage score: ALOMY” value was 0.

The compounds below were run on Echinochloa crus-galli (ECHCG) (assay: B1 pre-emergence herbicidal activity). Settings: Test 1b, rate 1000 g/ha, evaluated after 13 days, scale 5=total damage to plant, 0=no damage to plant.
Type: in vivo
Description: as §1, with “After” for “After 8 days”, “for one day (pre-emergence)” for “(post-emergence)”
For Cc1nc(-c2cncnc2)ncc1N [Compound D3, 4-methyl-2-pyrimidin-5-yl-pyrimidin-5-amine], the “Control after pre-emergence application, damage score: ECHCG” value was 1. For CNc1cnc(-c2cncnc2)nc1C [Compound D4], the “Control after pre-emergence application, damage score: ECHCG” value was 0. Nc1cnc(-c2cncc(F)c2)nc1C(F)(F)F [Compound D5, 2-(5-fluoro-3-pyridyl)-4-(trifluoromethyl)pyrimidin-5-amine] was tested, and the “Control after pre-emergence application, damage score: ECHCG” value was 4. For CNc1cnc(-c2cncc(F)c2)nc1C(F)(F)F [Compound D6], the “Control after pre-emergence application, damage score: ECHCG” value was 4.

Each compound was assayed on Triticum aestivium (TRZAW) (assay: B1 pre-emergence herbicidal activity). Settings: Test 1b, rate 1000 g/ha, evaluated after 13 days, scale 5=total damage to plant, 0=no damage to plant.
Type: in vivo
Description: as §1, with “After” for “After 8 days”, “for one day (pre-emergence)” for “(post-emergence)”
Cc1nc(-c2cncnc2)ncc1N [Compound D3, 4-methyl-2-pyrimidin-5-yl-pyrimidin-5-amine] was tested, and the “Control after pre-emergence application, damage score: TRAZW” value was 0. With CNc1cnc(-c2cncnc2)nc1C [Compound D4] the “Control after pre-emergence application, damage score: TRAZW” value was 0. In the case of Nc1cnc(-c2cncc(F)c2)nc1C(F)(F)F [Compound D5, 2-(5-fluoro-3-pyridyl)-4-(trifluoromethyl)pyrimidin-5-amine], the “Control after pre-emergence application, damage score: TRAZW” value is reported as 0. For CNc1cnc(-c2cncc(F)c2)nc1C(F)(F)F [Compound D6], the “Control after pre-emergence application, damage score: TRAZW” value was 0.

Each compound was assayed on Setaria faberi (SETFA) (assay: B1 pre-emergence herbicidal activity). Settings: Test 1b, rate 1000 g/ha, evaluated after 13 days, scale 5=total damage to plant, 0=no damage to plant.
Type: in vivo
Description: as §1, with “After” for “After 8 days”, “for one day (pre-emergence)” for “(post-emergence)”
For Cc1nc(-c2cncnc2)ncc1N [Compound D3, 4-methyl-2-pyrimidin-5-yl-pyrimidin-5-amine], the “Control after pre-emergence application, damage score: SETFA” value was 2. For CNc1cnc(-c2cncnc2)nc1C [Compound D4], the “Control after pre-emergence application, damage score: SETFA” value was 2. With Nc1cnc(-c2cncc(F)c2)nc1C(F)(F)F [Compound D5, 2-(5-fluoro-3-pyridyl)-4-(trifluoromethyl)pyrimidin-5-amine] the “Control after pre-emergence application, damage score: SETFA” value was 5. With CNc1cnc(-c2cncc(F)c2)nc1C(F)(F)F [Compound D6] the “Control after pre-emergence application, damage score: SETFA” value was 4.

These compounds were tested on Lolium perenne (LOLPE) (assay: B1 pre-emergence herbicidal activity). Settings: Test 1b, rate 1000 g/ha, evaluated after 13 days, scale 5=total damage to plant, 0=no damage to plant.
Type: in vivo
Description: as §1, with “After” for “After 8 days”, “for one day (pre-emergence)” for “(post-emergence)”
Cc1nc(-c2cncnc2)ncc1N [Compound D3, 4-methyl-2-pyrimidin-5-yl-pyrimidin-5-amine] was tested, and the “Control after pre-emergence application, damage score: LOLPE” value was 1. For CNc1cnc(-c2cncnc2)nc1C [Compound D4], the “Control after pre-emergence application, damage score: LOLPE” value was 1. With Nc1cnc(-c2cncc(F)c2)nc1C(F)(F)F [Compound D5, 2-(5-fluoro-3-pyridyl)-4-(trifluoromethyl)pyrimidin-5-amine] the “Control after pre-emergence application, damage score: LOLPE” value was 1. CNc1cnc(-c2cncc(F)c2)nc1C(F)(F)F [Compound D6] was tested, and the “Control after pre-emergence application, damage score: LOLPE” value was 1.

The compounds below were run on Avena fatua (AVEFA) (assay: B1 pre-emergence herbicidal activity). Settings: Test 1b, rate 1000 g/ha, evaluated after 13 days, scale 5=total damage to plant, 0=no damage to plant.
Type: in vivo
Description: as §1, with “After” for “After 8 days”, “for one day (pre-emergence)” for “(post-emergence)”
With Cc1nc(-c2cncnc2)ncc1N [Compound D3, 4-methyl-2-pyrimidin-5-yl-pyrimidin-5-amine] the “Control after pre-emergence application, damage score: AVEFA” value was 0. For CNc1cnc(-c2cncnc2)nc1C [Compound D4], the “Control after pre-emergence application, damage score: AVEFA” value was 0. Nc1cnc(-c2cncc(F)c2)nc1C(F)(F)F [Compound D5, 2-(5-fluoro-3-pyridyl)-4-(trifluoromethyl)pyrimidin-5-amine] was tested, and the “Control after pre-emergence application, damage score: AVEFA” value was 4. CNc1cnc(-c2cncc(F)c2)nc1C(F)(F)F [Compound D6] was tested, and the “Control after pre-emergence application, damage score: AVEFA” value was 1.

What follows are compounds tested on Alopecurus myosuroides (ALOMY) (assay: B1 pre-emergence herbicidal activity). Settings: Test 1b, rate 1000 g/ha, evaluated after 13 days, scale 5=total damage to plant, 0=no damage to plant.
Type: in vivo
Description: as §1, with “After” for “After 8 days”, “for one day (pre-emergence)” for “(post-emergence)”
With Cc1nc(-c2cncnc2)ncc1N [Compound D3, 4-methyl-2-pyrimidin-5-yl-pyrimidin-5-amine] the “Control after pre-emergence application, damage score: ALOMY” value was 0. With CNc1cnc(-c2cncnc2)nc1C [Compound D4] the “Control after pre-emergence application, damage score: ALOMY” value was 0. In the case of Nc1cnc(-c2cncc(F)c2)nc1C(F)(F)F [Compound D5, 2-(5-fluoro-3-pyridyl)-4-(trifluoromethyl)pyrimidin-5-amine], the “Control after pre-emergence application, damage score: ALOMY” value is reported as 1. With CNc1cnc(-c2cncc(F)c2)nc1C(F)(F)F [Compound D6] the “Control after pre-emergence application, damage score: ALOMY” value was 0.
